{
  "source": "patent US20070032471A1",
  "about": "“Active substance combination comprising a 2,5-dihydroxybenzenesulfonic compound and a potassium ion channel modulator” (LABORATORIOS DEL DR. ESTEVE S.A., priority 2003, published 2007)",
  "key": {"diabetic rats": {"tested_on": "diabetic rats", "test": "Erectile response to cavernosal nerve electrical stimulation in anaesthetized diabetic rats", "format": "in vivo, rat", "details": "administered alone, intravenous administration", "protocol": "The in-vivo activity of the active substance combination is tested as described in the reference of Saénz Tejada et al. in International Journal of Impotence Research 2003, 15, 90-93 under “Methods—Erectile responses to cavernosal nerve stimulation in anaesthetized rats”, which is hereby incorporated by reference and forms part of the disclosure. The erectile response to cavemosal nerve electrical stimulation in anaesthetized diabetic rats was determined as described above."}, "[1]": {"tested_on": "human penile resistance arteries", "test": "Effect of calcium dobesilate on relaxation induced by K(ATP)-channel activation (pinacidil) in human penile arteries", "details": "calcium dobesilate 10 μM for 30 min; norepinephrine-contracted arteries; pinacidil 1 nM to 1 mM", "protocol": "(§1) Penile small arteries, […] arteries (lumen diameter 150-400 μm), which are the terminal branches of deep penile arteries, are dissected by carefully removing the adhering trabecular tissue, and arterial ring segments (2 mm long) and are subsequently mounted on two 40 μm wires on microvascular Halpern-Mulvany myographs (J. P. Trading, Aarhus, Denmark) for isometric tension recordings. The vessels are allowed to equilibrate for 30 min in physiological salt solution (PSS) of the following composition (mmol/l): NaCl 119, KCl 4.6, CaCl2 1.5, MgCl2 1.2, NaHCO3 24.9, glucose 11, KH2PO4 1.2, EDTA 0.027 at 37° C. continuously bubbled with 95% 02/5% CO2 mixture to maintain a pH of 7.4. Passive tension and internal circumference of vascular segments when relaxed in situ under a transmural pressure of 100 mmHg (L100), are determined. […] The preparations are then exposed to 125 mM K^+ (KPSS, equimolar substitution of […] in PSS) and the contractile response is measured. […] At this time, responses to pinacidil are again evaluated in NE-contracted arteries. […] Relaxation responses are expressed as percentage of total relaxation (loss in tone) induced by the addition of 0.1 mmol/l papaverine HCl to the chambers at the end of the experiment. All data are expressed as mean±standard error. […]"}, "[2]": {"tested_on": "human penile resistance arteries", "test": "Effect of calcium dobesilate on relaxation induced by Ca2+-activated K+-channel activation (NS1619) in human penile arteries", "details": "calcium dobesilate 10 μM for 30 min; norepinephrine-contracted arteries; NS1619 1 nM to 10 μM", "protocol": "as §1, with “NS1619” for “pinacidil”"}},
  "data": [
    {"compound": "O=c1[nH]c2cc(C(F)(F)F)ccc2n1-c1cc(C(F)(F)F)ccc1O", "note": "[NS1619, 1-[2-Hydroxy-5-(trifluoromethyl)phenyl]-5-(trifluoromethyl)-1,3-dihydro-2H-benzimidazol-2-one]", "values": [
      {"measurement": "erectile response", "setting": "diabetic rats; 0.3 mg/kg or 5 mg/kg", "result": "do not modify the erectile response"}
    ]},
    {"compound": "O=S(=O)(O)c1cc(O)ccc1O", "note": "[calcium dobesilate, calcium 2,5-dihydroxybenzenesulfonate]", "values": [
      {"measurement": "potentiation of relaxation induced by activation of K(ATP) channels with pinacidil", "setting": "[1]", "result": "significantly potentiates"},
      {"measurement": "potentiation of relaxant responses induced by K(Ca) channel activation", "setting": "[2]", "result": "strongly potentiates"},
      {"measurement": "erectile response", "setting": "diabetic rats; 10 mg/kg", "result": "do not modify the erectile response"}
    ]}
  ]
}
